Tests used:
5XFAD mice [1] = assay: Novel object recognition test in 5XFAD mice (Alzheimer's disease model); format: in vivo, mouse; conditions: i.p. once a day for 20 days, diosgenin 10 μmol/kg, memantine hydrochloride 200 μmol/kg/day, 30 min training-test interval
Excerpt: Transgenic mice (5XFAD) as an animal model of AD were obtained from the Jackson Laboratory (Bar Harbor, Me., USA). The 5XFAD mice overexpress human APP695 cDNA having Swedish mutation (K670N and M671L), Florida mutation (I716V) and London mutation (V717I) and human PS1 cDNA (M146L and L286V) under the transcriptional control of the neuron-specific mouse Thy-1 promoter (Oakley, H. et al., J Neurosci, 26, 10129-10140, 2006). They were maintained by crossing hemizygous transgenic mice with B6/SJL F1 breeders.
To investigate the effect of diosgenin on 5XFAD, hemizygous 5XFAD mice (female, 6 to 8 months old) and non-transgenic littermate wild-type mice (female, 6 to 8 months old) were used. These mice were obtained by crossing hemizygous 5XFAD mice and B6/SJL F1 mice. All mice were housed with free access to food and water and were kept in a controlled environment (22±2° C., 50±5% humidity, 12-h light/dark cycle starting at 7:00 am).
Diosgenin was dissolved in dimethyl sulfoxide (DMSO) at 10 times the final concentration to give a stock solution. The stock solution was diluted in physiological saline to the final concentration immediately before treatment. The diosgenin solution was intraperitoneally administered to 5XFAD mice once a day (10 μmol/kg=4.14 mg/kg) for 20 days. On the last day of administration (Day 20), each mouse was housed in a separate open-field box made of polyvinyl chloride (33 cm×[…]; height: 26.5 cm) and habituated to the environment for 10 min. […]
(§1) For each mouse of Example 1, Comparative Examples 1 and 2, and Reference Example 1, the path during the 10-minute habituation was tracked using a digital camera system. The distance each mouse traveled during the 10 minutes was analyzed as locomotion activity with EthoVision 3.0 (Noldus, Wageningen, The Netherlands). […] In the present invention, the ratio (%) of the exploration time for the novel object to the total exploration time was calculated as an exploration preferential index. […]

5XFAD mice [2] = assay: Open field locomotion test in 5XFAD mice; format: in vivo, mouse; conditions: i.p. 20 days, diosgenin 10 μmol/kg, memantine hydrochloride 200 μmol/kg/day, among the four groups
Method: Diosgenin was dissolved in dimethyl sulfoxide (DMSO) at 10 times the final concentration to give a stock solution. The stock solution was diluted in physiological saline to the final concentration immediately before treatment. The diosgenin solution was intraperitoneally administered to 5XFAD mice once a day (10 μmol/kg=4.14 mg/kg) for 20 days. On the last day of administration (Day 20), each mouse was housed in a separate open-field box made of polyvinyl chloride (33 cm×[…]; height: 26.5 cm) and habituated to the environment for 10 min.
as §1, with “Netherlands). The next day, a novel object recognition test was performed as described in Joyashiki, E. et al., Int J Neurosci, 121, 181-190, 2011 and Tohda, C. et al., Int J Neurosci, 121, 641-648, 2011, written by the inventors and others. Testing was carried out in a dimly illuminated room.” for “Netherlands).”

normal mice = assay: Measurement of spontaneous motor activity; format: in vivo, mouse; conditions: normal ddY mice, diosgenin 10 μmol/kg/day i.p., vs vehicle
Method: Diosgenin (Wako Pure Chemical Industries, Ltd., Osaka, Japan) was dissolved in ethanol at 10 times the final concentration to give a stock solution, and the stock solution was diluted in a 5% aqueous solution of glucose to the final concentration. The diosgenin solution was intraperitoneally administered to normal mice (ddY mice, male, 6 weeks old) once a day (10 μmol/kg/day) for 5 or 6 days. One hour after the last administration, each mouse was housed in a separate open-field box made of polyvinyl chloride (33 cm×28 cm; height: 26.5 cm), habituated to the environment for 10 minutes, and used in the test.
The spontaneous motor activity was evaluated based on the distance each mouse traveled in an open field during 10 minutes.

1,25D3-MARRS = biological target: T1, 1,25D3-MARRS (Rattus norvegicus, UniProt P11598); assay: Detection of luminescence resulting from 1,25D3-MARRS binding (cell surface-binding DHVD3); conditions: diosgenin 0.1 μM or 10 μM added with DHVD3 0.1 μM, 10 minutes
T1 construct: endogenous in cells; host or cells: primary cultured rat cortical neurons (SD, E17)
T1 sequence (P11598 25-505): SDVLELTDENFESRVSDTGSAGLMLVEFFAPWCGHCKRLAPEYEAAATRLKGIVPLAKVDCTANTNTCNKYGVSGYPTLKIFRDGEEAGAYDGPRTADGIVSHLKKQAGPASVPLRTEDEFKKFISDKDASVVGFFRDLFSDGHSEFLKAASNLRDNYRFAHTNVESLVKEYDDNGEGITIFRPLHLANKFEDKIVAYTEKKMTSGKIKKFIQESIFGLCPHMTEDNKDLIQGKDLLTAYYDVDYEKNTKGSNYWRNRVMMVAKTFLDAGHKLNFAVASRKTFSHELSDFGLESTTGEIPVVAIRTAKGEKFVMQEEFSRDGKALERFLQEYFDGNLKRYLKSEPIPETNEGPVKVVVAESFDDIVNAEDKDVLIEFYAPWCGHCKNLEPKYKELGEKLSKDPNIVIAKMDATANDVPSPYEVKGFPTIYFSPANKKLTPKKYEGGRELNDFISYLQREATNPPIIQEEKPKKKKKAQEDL
Excerpt: Embryos were removed from pregnant Sprague-Dawley rats (Japan SLC, Shizuoka, Japan) at 17 days of gestation. The cortices were dissected, and the dura mater was removed.
Primary cultured cortical neurons (SD, E17) were harvested into a 96-well white plate at a density of 0.5×10^5 cells/well. […] Horse radish peroxidase-conjugated goat anti-mouse IgG (1:2000) was used as a secondary antibody. The chemiluminescence of the antigen-antibody complex was detected using a GENios multi-plate reader (Tecan, Mannedorf, Zurich, Switzerland).

traveling speed and distance in open field locomotion test (5XFAD mice [2]): no significant differences
spontaneous motor activity (distance traveled in an open field during 10 minutes) (normal mice): no significant difference
immunochemiluminescence intensity of cell surface-bound DHVD3 (replacement of DHVD3) (1,25D3-MARRS): remarkably decreased
SMILES: C[C@@H]1CC[C@@]2(OC1)O[C@H]1C[C@H]3[C@@H]4CC=C5C[C@@H](O)CC[C@]5(C)[C@H]4CC[C@]3(C)[C@H]1[C@@H]2C [diosgenin]
novel object preferential index (exploration preferential index), test session (5XFAD mice [1]): higher than 50%

— patent US20150126464A1, “THERAPEUTIC DRUG AND THERAPEUTIC METHOD FOR NEUROLOGICAL DISEASES INCLUDING ALZHEIMER'S DISEASE ASSOCIATED WITH 1,25D3-MARRS” (priority 2013, published 2015)
